Experiment: gradient 5% acetonitrile 3 min, to 50% in 2 min, to 85% in 15 min, held 3 min, 100 µL/min
Settings: column: Zorbax Extend-C18 2.1 x 50 mm; eluents: water / acetonitrile, 0.1% formic acid
Outline: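 The mobile phases were water and acetonitrile, each with 0.1% formic acid, pumped at 100 μL/min through a Zorbax Extend-C18 column (2.1 × 50 mm, 1.8 μm). Pure standards were injected as mixtures of ~100 molecules and detected by a quadrupole time-of-flight mass spectrometer in positive and negative ionization mode. Retention time came from computationally picked adduct peaks, each inspected by hand.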

| SMILES | RP-LC retention time [s] |
| --- | --- |
| Cc1nn(-c2nc3ccccc3[nH]2)c2c1C(=O)CC(/C=C/c1ccccc1)C2 (stereo not given) | 1030 |
| Cc1nc(CC(=O)Nc2nc(-c3ccc(-c4ccccc4)cc3)cs2)cs1 | 1160 |
| COc1cccc(CNC(=O)Cn2cnc3onc(C)c3c2=O)c1 | 708 |
| Cc1cccc(C)c1-n1ccn(Cc2nc(-c3ccc(F)cc3)no2)c(=O)c1=O | 884 |
| CC(C)CCNC(=O)c1cn(C)nc1S(=O)(=O)N1CCSCC1 | 900 |
| COc1cc(-c2noc(C3CC(=O)N(c4ccc(C)cc4)C3)n2)cc(OC)c1OC (stereo not given) | 902 |
| O=C(Cn1nc2c(N3CCCCCC3)nccn2c1=O)Nc1cccc(C(F)(F)F)c1 | 805 |
| Cc1ccccc1NC(=O)C1CCN(c2nc(C3CCC3)nc3csc(C)c23)CC1 | 757 |
| Cn1cc(CCN2CCC(C(=O)N3CCN(c4ccccc4)CC3)CC2)c2cccnc21 | 617 |
| CCCNS(=O)(=O)c1cccc(-c2nnc(-c3ccc(C)cc3)o2)c1 | 971 |
| O=S(=O)(CCOc1ccc(F)cc1)Nc1cccnc1 | 627 |
| COc1ccc(-c2nc(-c3ccc4c(c3)ncn4CCC(=O)N3CCCC3)no2)cc1OC | 776 |
| Fc1ccc(-c2noc(Cc3nc(-c4ccc(Br)cc4)cs3)n2)cc1 | 1340 |
| COc1ccc(NC(=O)N2C[C@@H]3C[C@H](NS(C)(=O)=O)[C@H]2C3)c(C)c1 | 652 |
| COc1ccc(CNC(=O)NCCOc2cc(C)cc(C)c2)cc1OC | 782 |
| CCCSCCCNC(=O)Cn1c(=O)c(C)nc2cc(C)c(C)cc21 | 828 |
| Cc1ccc(NS(=O)(=O)c2ccc3c(c2)C(=O)N(C)c2ncccc2O3)cc1 | 914 |
| COc1ccccc1Nc1c(-c2ccc(Cl)cc2)nc2cnccn12 | 1020 |
| Cc1cc(C)n(-c2nc(C)c(C(=O)Nc3ccc(N(C)C)cc3)s2)n1 | 737 |
| Cc1nn(C(C)C(=O)Nc2cc(F)ccc2F)c(=O)c2c(-n3cccc3)n(-c3ccccc3)nc12 (stereo not given) | 1130 |
| CCc1nn2c(CNC(=O)c3ccc(C(F)(F)F)cc3)c(C)nc2s1 | 714 |
| CC(C)NC(=O)Cn1cnc2ccccc2c1=O | 609 |
| Cc1ccccc1-c1nc(Cn2ccnc2)no1 | 609 |
| O=C(c1noc2ccc(S(=O)(=O)N3CCN(c4ccccn4)CC3)cc12)N1CCCC1 | 677 |
| Cc1ccc(C)c(CNC(=O)c2cnc(-c3ccccc3)nc2-c2ccncc2)c1 | 913 |

| SMILES | RP-LC retention time [s] |
| --- | --- |
| CCCc1noc(-c2ccc(-n3ncc(C(=O)NC(C)C)c3C)nc2)n1 | 970 |
| CCCN1CCN(C(=O)C(C)C2CCN(C(=O)c3[nH]c(C)c(C(=O)OCC)c3C)CC2)CC1 (stereo not given) | 620 |
| Cc1nc([C@@H]2CN(C(=O)C(C)(C)C)C[C@H]2C(N)=O)n[nH]1 | 564 |
| O=c1oc2cc(O)cc(O)c2c2c1CCCC2 | 708 |
| Cc1cc(Cl)ccc1S(=O)(=O)N1CCc2c(c(CN3CCCC3)nn2C)C1 | 679 |
| CCN1CCN(Cc2nc3cc(NC(=O)c4cccs4)ccc3n2C(C)C)CC1 | 586 |
| Cc1ccc(-n2nc(C)c3sc(N(C)CC(=O)N4CCN(c5ccccn5)CC4)nc32)cc1 | 709 |
| CCNC(=O)CN1C(=O)C2CCCCN2c2ccc(S(=O)(=O)N(CC)CC)cc21 (stereo not given) | 804 |
| Cc1ccccc1Nc1c(-c2c(F)cccc2Cl)nc2ccc(Br)cn12 | 997 |
| COC(=O)CCNC(=O)C1c2ccccc2C(=O)N(C2CCCCC2)C12CCCCC2 (stereo not given) | 1010 |
| CCNC(=O)Nc1ccc(OCC(=O)NC(C)c2ccc(OC)c(OC)c2)nc1 (stereo not given) | 644 |
| O=C1CCCN1CCCN(CC(=O)N1CCNCC1)C(=O)c1ccc(C(F)(F)F)cc1 | 602 |
| CC(=O)n1nc(-c2ccccc2Cl)nc1N | 729 |
| CC(C(=O)N1CCC(N2CCCCC2)CC1)C1CCN(S(=O)(=O)c2ccc(Cl)s2)CC1 (stereo not given) | 681 |
| O=C(CCc1c(-c2ccc(F)cc2)nc2ccccn12)N1CCC2(CC1)OCCO2 | 615 |
| CCN(CC)C(=O)Cn1c(Cc2ccc(Cl)cc2)nc2ccccc21 | 693 |
| CCc1nc(OCC(=O)N(CC)c2ccccc2)c2ccccc2n1 | 798 |
| O=C(NC1CCCCCC1)c1ccc2ncnc(N3CCCC3)c2c1 | 675 |
| Cc1ccc(-c2nc(-c3cccc(-c4ccnn4C)c3)no2)c(C)c1 | 1330 |
| Cn1c(SCCC(=O)O)nnc1-c1cccnc1 | 515 |
| Cc1cc(C)n(CC(=O)N[C@@H]2CN(S(C)(=O)=O)C[C@H]2CN(C)C)n1 | 564 |
| CCn1ccc(C(=O)NCc2cccnc2Oc2ccccc2)n1 | 705 |
| CCn1cnnc1C1CCN(C(=O)C2(c3ccc(OC)cc3)CC2)CC1 | 599 |
| Cc1ccc(NC(=O)Cn2c(C)nc3c(sc4nc(-c5ccccc5)ccc43)c2=O)cc1 | 1060 |

Continued, values first:

| RP-LC retention time [s] | SMILES |
| --- | --- |
| 614 | Cc1c(Cl)cccc1NC(=O)NCC1(N2CCOCC2)CCOC1 (stereo not given) |
| 943 | COc1cccc(NC(=O)Cn2c(C)cc(-c3nnc(-c4ccc(F)cc4)o3)c2C)c1 |
| 706 | O=C1NCCc2ccc(NC(=O)C3(c4ccc(F)cc4)CC3)cc21 |
| 917 | COc1ccc(CNC(=O)C2CCCN(S(=O)(=O)c3ccc(OC)c(Cl)c3)C2)cc1 (stereo not given) |
| 958 | CCn1cc(-c2nc(C(=O)NCc3ccc(OC)cc3)cs2)c2cccnc21 |
| 890 | Cc1ccc(CNc2c(-c3ccc(F)c(F)c3)nc3ncccn23)cc1 |
| 971 | CCC1Oc2ccc(S(=O)(=O)N3CCC(C(=O)Nc4ccc(C)cc4Cl)CC3)cc2NC1=O (stereo not given) |
| 698 | Cc1c(C2CCN(C(=O)Cc3ccc(F)cc3)CC2)noc1N |
| 783 | CCc1noc(NC(C)=O)c1-c1ccc(C)c(S(=O)(=O)NCc2cccs2)c1 |
| 771 | COc1ccc(NC(=O)N2CCC3(CC2)CN(c2ccccc2)C3=O)cc1OC |
| 731 | CCN1c2ccccc2C(=O)NC12CCN(C(=O)Nc1ccccc1C)CC2 |
| 1240 | CCOc1nc2ccccc2nc1N1CCCC(C(=O)Nc2ccc(C(C)C)cc2)C1 (stereo not given) |
| 992 | Cc1ccc(-c2ncc(C(=O)NCC3CCCCC3)c(-c3ccncc3)n2)cc1 |
| 869 | Cc1ccc(Sc2ccccc2N2CCNCC2)c(C)c1 |
| 659 | CCN(CC)c1ccc(NC(=O)C2CCCN(C(=O)c3cc(C)cc(C)c3)C2)c(C)c1 (stereo not given) |
| 710 | Cc1ccccc1Nc1c(-c2ccc(O)cc2)nc2ccc(Cl)cn12 |
| 630 | CC(=O)Nc1ccc(CCc2nc3ccc(C(=O)NCCC(C)C)cc3[nH]2)cc1 |
| 755 | Cc1ccc(CNC(=O)Cn2nc(C(=O)N3CCCC3)c3ccccc32)o1 |
| 901 | CCc1cccc(NC(=O)N2CCc3nc(-c4ccccc4)ncc3C2)c1 |
| 817 | CC1(C(=O)NCc2ccc3c(c2)OCO3)CCN(C(=O)/C=C/c2ccccc2)CC1 |
| 932 | CC(C)n1c(=O)sc2cc(S(=O)(=O)N3CCC(C(=O)NCc4ccccc4)CC3)ccc21 |

| RP-LC retention time [s] | SMILES |
| --- | --- |
| 612 | O=C(CCc1nnc2ccc(NCc3ccc(F)cc3)nn12)N1CCN(c2ccccn2)CC1 |
| 863 | Cc1cc(=O)n(CC(=O)NCc2ccc(F)c(Cl)c2)c(N)n1 |
| 675 | COCCCNC(=O)C1CCN(c2ccc(Sc3cccc(F)c3)nn2)CC1 |
| 640 | CCC(=O)N1CCc2c(C(=O)NCc3ccc(N4CCC(C)CC4)cc3)cccc21 |
| 670 | O=C(NCC1CCOCC1)Nc1ccc(F)cc1 |
| 828 | Cc1ccc(NC(=O)Cn2nc(C(=O)N3CCCC3)c3ccccc32)cc1C |
| 797 | Cc1ccc(F)cc1S(=O)(=O)N1CCn2c(nn(CC3CC3)c2=O)C1 |
| 668 | CC1CCN(C(=O)c2cc3c(s2)CCC(C(=O)NCc2ccccn2)C3)CC1 (stereo not given) |
| 804 | COc1cccc(N2CCN(c3ccnc(SCC(=O)Nc4ccc(F)cc4F)n3)CC2)c1 |
| 849 | Cc1ccc(Cl)cc1NC(=O)N1CCC(CC(=O)NCc2ccc(F)cc2)CC1 |
| 853 | Cc1cccc(N2CCN(C(=O)CN3CCN(Cc4ccccc4)C3=O)CC2)c1 |
| 1060 | CSc1ccc(CNC(=O)C2CCCN(c3ncc(-c4ccccc4)cn3)C2)cc1 (stereo not given) |
| 882 | CN1CCCc2cc(C(=O)NCc3ccccc3)sc21 |
| 705 | Cc1cccc(CC(=O)Nc2c(C(=O)N3CCN(c4ccccn4)CC3)oc3ccccc23)c1 |
| 832 | Cc1ccccc1-c1noc(-c2cccn(CC(=O)NC3CCCC3)c2=O)n1 |
| 566 | COc1ccc(CN2CCC(NC(=O)c3ccc(C#N)cc3)C2)cn1 (stereo not given) |
| 642 | O=C(NCc1ccccn1)c1cc(-c2cccnc2)nc2ccc(Cl)cc12 |
| 1010 | CCCNC(=O)NC1CCN(c2nc3cccnc3n(Cc3ccc(C)cc3)c2=O)CC1 |
| 741 | O=C(CCc1csc(NC(=O)c2ccc(F)cc2)n1)Nc1ccc(-n2cnnn2)cc1 |
| 647 | Cc1ccc(C(=O)N2CCN(c3nnc4ccccn34)CC2)cc1F |
